According to publication PMC2010749, “Cytotoxic and clastogenic effects of soluble and insoluble compounds containing hexavalent and trivalent chromium” (British Journal of Cancer, 1981):

How the values were obtained:
[1] = system: BHK 21 Syrian hamster fibroblast line; experiment: Cell growth of BHK cultures (DNA + RNA content), Cr compounds added directly to medium; type: cell-based; details: 48 h in MEM
Experimental: (§1) Cell growth and labelling.-The reduction in cell growth, based on the nucleic acid content (DNA + RNA) of treated cultures, and the inhibition of DNA, RNA and protein syn- thesis, based on the incorporation of labelled precursors, were determined, to evaluate the cytotoxic effects of Cr compounds in BHK cell cultures. […] Three to four thousand cells were then examined for each dose level and each time interval, and the mitotic index (the ratio of all mitoses to the total number of cells) and the frequencies of each mitotic phase (the ratios of cells in each phase to total mitoses) were determined. […] Chromium compounds and cell treatments.- The tested compounds of Cr(VI) and Cr(III) and their physico-chemical properties are listed in Table I. In many experiments in which most of them were highly insoluble or only partially soluble (see Tables I, IV, V), Cr compounds were directly suspended in the growth medium used for treatments. In the experiments on the induction of chromosome aberrations and SCE in CHO cells, almost complete solubilization was obtained in N HCI for Cr(III) compounds and 0-5N NaOH for Cr(VI) compounds, after which they were diluted with MEM to the final concentrations specified in Table IX. […] The cytotoxic and clastogenic effects were usually deter- mined just at the end of Cr treatments, but sometimes the treated cells were washed with HBSS and incubated with normal growth medium, so that the effects of Cr were deter- mined at different times after the end of treatment (see Fig. 3 and Table VII).

[2] = system: BHK 21 Syrian hamster fibroblast line; experiment: DNA, RNA and protein syntheses in BHK cells, Cr compounds added directly to medium; type: cell-based; details: 48 h in MEM
Experimental: (§2) Cell growth and labelling.-The reduction in cell growth, based on the nucleic acid content (DNA + RNA) of treated cultures, and the inhibition of DNA, RNA and protein syn- thesis, based on the incorporation of labelled precursors, were determined, to evaluate the cytotoxic effects of Cr compounds in BHK cell cultures. […] Three to four thousand cells were then examined for each dose level and each time interval, and the mitotic index (the ratio of all mitoses to the total number of cells) and the frequencies of each mitotic phase (the ratios of cells in each phase to total mitoses) were determined. […] Chromium compounds and cell treatments.- The tested compounds of Cr(VI) and Cr(III) and their physico-chemical properties are listed in Table I. In many experiments in which most of them were highly insoluble or only partially soluble (see Tables I, IV, V), Cr compounds were directly suspended in the growth medium used for treatments. […] The cytotoxic and clastogenic effects were usually deter- mined just at the end of Cr treatments, but sometimes the treated cells were washed with HBSS and incubated with normal growth medium, so that the effects of Cr were deter- mined at different times after the end of treatment (see Fig. 3 and Table VII).

[3] = system: BHK 21 Syrian hamster fibroblast line; experiment: DNA, RNA and protein syntheses in BHK monolayers exposed to filtered medium preincubated with Cr compounds; type: cell-based;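 note: DNA, RNA and protein synthesis in BHK cultures assessed by incorporation of labelled precursors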
Experimental: as §2

[4] = system: CHO Chinese hamster fibroblast line; experiment: Cell growth of CHO cultures (DNA + RNA content); type: cell-based; details: 32 h in MEM
Experimental: as §2

[5] = system: HEp-2 human epithelial-like line; details: 2 h exposure to medium preincubated 2 days with 0.5 mg/ml in presence of BHK cells
Experimental: as §2

[6] = system: rats; details: s.c. in rats; 0% in the controls; ref Maltoni (1976); cited from earlier work
[7] = system: Salmonella; details: ref Petrilli & De Flora (1978a,b) and De Flora (1981), cited from earlier work; for Mutagenicity in the plate test: dissolved in 0.5N NaOH
[8] = Solubility of chromium compounds (Table I)
Experimental: as §1

[9] = system: bacteria and mammalian cells in culture; details: 1979, De Flora, 1981, cited from earlier work
[10] = 0.5 mg/ml, preincubation 2 h, monolayers exposed 24 h
[11] = 0.5 mg/ml, preincubation 1 d, monolayers exposed 24 h
[12] = 0.5 mg/ml, preincubation 2 d, monolayers exposed 24 h
[13] = 0.5 mg/ml, preincubation 3 d, monolayers exposed 24 h
[14] = 0.5 mg/ml, preincubation 6 d, monolayers exposed 24 h
[15] = preincubated 48 h with 0.5 mg/ml, cells exposed 24 h
[16] = preincubated 48 h with 0.15/0.05 mg/ml (one value for both), cells exposed 24 h

## [O]=[Cr](=[O])([O-])[O-].[O]=[Pb].[Pb+2] [Chromium orange, Basic lead chromate]
[1]; 0.05 mg/ml
  Cell growth: 72 % of controls
[1]; 0.15 mg/ml
  Cell growth: 41 % of controls
[1]; 0.5 mg/ml
  Cell growth: 0 % of controls
[2]; 0.05 mg/ml
  DNA synthesis: 43 % of controls
  Protein synthesis: 92 % of controls
  RNA synthesis: 84 % of controls
[2]; 0.15 mg/ml
  DNA synthesis: 11 % of controls
  Protein synthesis: 75 % of controls
  RNA synthesis: 53 % of controls
[2]; 0.5 mg/ml
  DNA synthesis: 0 % of controls
  Protein synthesis: 0 % of controls
  RNA synthesis: 0 % of controls
[3]; [10]
  DNA synthesis, preinc. in MEM: 100 % of controls
  DNA synthesis, preinc. in MEM+BHK: 100 % of controls
  Protein synthesis, preinc. in MEM: 100 % of controls
  Protein synthesis, preinc. in MEM+BHK: 100 % of controls
  RNA synthesis, preinc. in MEM: 100 % of controls
  RNA synthesis, preinc. in MEM+BHK: 100 % of controls
[3]; [11]
  DNA synthesis, preinc. in MEM: 84 % of controls
  DNA synthesis, preinc. in MEM+BHK: 95 % of controls
  Protein synthesis, preinc. in MEM: 100 % of controls
  Protein synthesis, preinc. in MEM+BHK: 100 % of controls
  RNA synthesis, preinc. in MEM: 100 % of controls
  RNA synthesis, preinc. in MEM+BHK: 100 % of controls
[3]; [12]
  DNA synthesis, preinc. in MEM: 54 % of controls
  DNA synthesis, preinc. in MEM+BHK: 86 % of controls
  Protein synthesis, preinc. in MEM: 92 % of controls
  Protein synthesis, preinc. in MEM+BHK: 100 % of controls
  RNA synthesis, preinc. in MEM: 85 % of controls
  RNA synthesis, preinc. in MEM+BHK: 96 % of controls
[3]; [13]
  DNA synthesis, preinc. in MEM: 47 % of controls
  DNA synthesis, preinc. in MEM+BHK: 78 % of controls
  Protein synthesis, preinc. in MEM: 100 % of controls
  Protein synthesis, preinc. in MEM+BHK: 100 % of controls
  RNA synthesis, preinc. in MEM: 81 % of controls
  RNA synthesis, preinc. in MEM+BHK: 100 % of controls
[3]; [14]
  DNA synthesis, preinc. in MEM: 21 % of controls
  DNA synthesis, preinc. in MEM+BHK: 52 % of controls
  Protein synthesis, preinc. in MEM: 78 % of controls
  Protein synthesis, preinc. in MEM+BHK: 92 % of controls
  RNA synthesis, preinc. in MEM: 66 % of controls
  RNA synthesis, preinc. in MEM+BHK: 72 % of controls
[3]; [15]
  DNA synthesis, preinc. in MEM: 62 % of controls
  DNA synthesis, preinc. in MEM+BHK: 100 % of controls
  Protein synthesis, preinc. in MEM: 100 % of controls
  Protein synthesis, preinc. in MEM+BHK: 100 % of controls
  RNA synthesis, preinc. in MEM: 93 % of controls
  RNA synthesis, preinc. in MEM+BHK: 100 % of controls
[3]; [16]
  DNA synthesis, preinc. in MEM: 100 % of controls
  DNA synthesis, preinc. in MEM+BHK: 100 % of controls
  Protein synthesis, preinc. in MEM: 100 % of controls
  Protein synthesis, preinc. in MEM+BHK: 100 % of controls
  RNA synthesis, preinc. in MEM: 100 % of controls
  RNA synthesis, preinc. in MEM+BHK: 100 % of controls
[4]; 5 µg/ml
  Cell growth: 100 % control
[4]; 25 µg/ml
  Cell growth: 93 % control
[4]; 150 µg/ml
  Cell growth: 56 % control
[5]
  Mitotic block (% increase of abnormal metaphases 2-4 h after treatment): ++ (+ + (50-100%))
  Mitotic inhibition, early (% reduction of normal prophases at the end of treatment): ++ (+ + (30-70%))
  Mitotic inhibition, late (% reduction of normal prophases 24 h after treatment): +++ (+ + + (> 70%))
[6]
  Frequency of sarcomas at the site of injection: 65-90%
[7]
  Mutagenicity in the plate test: positive
  Mutagenicity in the spot test: mutagens
[8]
  Solubility in water: Very low

## [Cl][Cr]([Cl])[Cl] [Chromium chloride]
[1]; 0.5 mg/ml
  Cell growth: 100 % of controls
[2]; 0.5 mg/ml
  DNA synthesis: 100 % of controls
  Protein synthesis: 100 % of controls
  RNA synthesis: 100 % of controls
[3]; [15]
  DNA synthesis, preinc. in MEM: 100 % of controls
  DNA synthesis, preinc. in MEM+BHK: 100 % of controls
  Protein synthesis, preinc. in MEM: 100 % of controls
  Protein synthesis, preinc. in MEM+BHK: 100 % of controls
  RNA synthesis, preinc. in MEM: 100 % of controls
  RNA synthesis, preinc. in MEM+BHK: 100 % of controls
[4]; 50 µg/ml
  Cell growth: 95 % control
[5]
  Mitotic block (% increase of abnormal metaphases 2-4 h after treatment): + (+ (<50%))
  Mitotic inhibition, early (% reduction of normal prophases at the end of treatment): ++ (+ + (30-70%))
  Mitotic inhibition, late (% reduction of normal prophases 24 h after treatment): + (+ (< 30%))
[8]
  Solubility in water: High

## [O]=[Cr](=[O])([O-])[O-].[Pb+2] [lead chromate]
[9]; fine suspension in water, ref Newbold et al.
  Mutagenicity for bacteria and mammalian cells in culture: inactive as a mutagen
[9]; solubilized in acids and alkalis, ref Nestmann et al.
  Point mutations in bacteria: induce point mutations
[7]
  Mutagenicity in the plate test: positive

## O=S(=O)([O-])[O-].O=S(=O)([O-])[O-].O=S(=O)([O-])[O-].[Cr+3].[Cr+3] [Chromium sulphate]
[1]; 0.5 mg/ml
  Cell growth: 68 % of controls
[2]; 0.5 mg/ml
  DNA synthesis: 45 % of controls
  Protein synthesis: 69 % of controls
  RNA synthesis: 55 % of controls
[3]; [15]
  DNA synthesis, preinc. in MEM: 82 % of controls
  DNA synthesis, preinc. in MEM+BHK: 100 % of controls
  Protein synthesis, preinc. in MEM: 100 % of controls
  Protein synthesis, preinc. in MEM+BHK: 100 % of controls
  RNA synthesis, preinc. in MEM: 87 % of controls
  RNA synthesis, preinc. in MEM+BHK: 100 % of controls
[4]; 5 µg/ml
  Cell growth: 100 % control
[4]; 25 µg/ml
  Cell growth: 100 % control
[4]; 150 µg/ml
  Cell growth: 93 % control
[5]
  Mitotic block (% increase of abnormal metaphases 2-4 h after treatment): + (+ (<50%))
  Mitotic inhibition, early (% reduction of normal prophases at the end of treatment): + (+ (< 30%))
  Mitotic inhibition, late (% reduction of normal prophases 24 h after treatment): + (+ (< 30%))

## Chromium sulphate [Chromium alum]
[1]; 0.5 mg/ml
  Cell growth: 88 % of controls
[2]; 0.5 mg/ml
  DNA synthesis: 66 % of controls
  Protein synthesis: 96 % of controls
  RNA synthesis: 89 % of controls
[3]; [15]
  DNA synthesis, preinc. in MEM: 92 % of controls
  DNA synthesis, preinc. in MEM+BHK: 100 % of controls
  Protein synthesis, preinc. in MEM: 100 % of controls
  Protein synthesis, preinc. in MEM+BHK: 100 % of controls
  RNA synthesis, preinc. in MEM: 100 % of controls
  RNA synthesis, preinc. in MEM+BHK: 100 % of controls
[4]; 5 µg/ml
  Cell growth: 100 % control
[4]; 25 µg/ml
  Cell growth: 100 % control
[4]; 150 µg/ml
  Cell growth: 100 % control
[5]
  Mitotic block (% increase of abnormal metaphases 2-4 h after treatment): + (+ (<50%))
  Mitotic inhibition, early (% reduction of normal prophases at the end of treatment): _
  Mitotic inhibition, late (% reduction of normal prophases 24 h after treatment): + (+ (< 30%))
[6]
  Frequency of sarcomas at the site of injection: 20-25%
